Assay results from patent publication EP0929545B1, “TRICYCLIC INHIBITORS OF FARNESYL PROTEIN TRANSFERASE” (SCHERING CORPORATION, priority 1996, dated 1998).
Like-named read-outs stand apart in the source and are kept apart here.

Experiments:
[1] = molecular target: farnesyl protein transferase (Homo sapiens, UniProt P49354+P49356); assay: FPT IC50, inhibition of farnesyl protein transferase, in vitro enzyme assay; type: biochemical; conditions: range stated jointly for the listed compounds
Procedure: (§1) FPT IC50 (inhibition of farnesyl protein transferase, in vitro enzyme assay) and COS Cell IC50 (Cell-Based Assay) were determined following the assay procedures described in WO 95/10516, published April 20, 1995. GGPT IC50 (inhibition of geranylgeranyl protein transferase, in vitro enzyme assay), Cell Mat Assay, and anti-tumor activity (in vivo anti-tumor studies) could be determined by the assay procedures described in WO 95/ 10516. The disclosure of WO 95/ 10516 is incorporated herein by reference thereto.

Human tumor cells = assay: Soft Agar Assay (anchorage-independent growth); type: cell-based; conditions: range stated jointly for the listed compounds, upper end printed as >500
Procedure: Anchorage-independent growth is a characteristic of tumorigenic cell lines. Human tumor cells are suspended in growth medium containing 0.3% agarose and an indicated concentration of a farnesyl transferase inhibitor. The solution is overlayed onto growth medium solidified with 0.6% agarose containing the same concentration of farnesyl transferase inhibitor as the top layer. After the top layer is solidified, plates are incubated for 10-16 days at 37°C under 5% CO2 to allow colony outgrowth. After incubation, the colonies are stained by overlaying the agar with a solution of MTT (3-[4,5-dimethylthiazol-2-yl]-2,5-diphenyltetrazolium bromide, Thiazolyl blue) (1 mg/mL in PBS). Colonies can be counted and the IC50's can be determined.

COS Cell = COS Cell IC50 (Cell-Based Assay); conditions: range stated jointly for the listed compounds
Procedure: as §1

[2] = H-ras, read-out: FPT IC50 (H-ras)
[3] = K-ras, read-out: FPT IC50 (K-ras)

IC50 [1, 3] [nM]	SMILES	IC50 [1, 2] [nM]	IC50 (Human tumor cells) [nM]	IC50 (COS Cell) [nM]
29 to 91	O=C(CC1CCN(c2nc3ccccc3o2)CC1)N1CCC([C@H]2c3ncc(Br)cc3CCc3cc(Cl)cc(Br)c32)CC1 [Compound 4.0]	4.6 to 140		35 to 120
	O=C(CC1CCN(c2nccs2)CC1)N1CCC([C@H]2c3ncc(Br)cc3CCc3cc(Cl)cc(Br)c32)CC1 [Compound 3.0]	4.6 to 140		
	O=C(CC1CCN(c2ncccn2)CC1)N1CCC([C@H]2c3ncc(Br)cc3CCc3cc(Cl)cc(Br)c32)CC1 [Compound 6.0]	4.6 to 140		35 to 120
29 to 91	O=C(CC1CCN(c2ccccn2)CC1)N1CCC([C@H]2c3ncc(Br)cc3CCc3cc(Cl)cc(Br)c32)CC1 [Compound 5.0]	4.6 to 140	≥ 80	35 to 120
	O=C(CC1CCN(c2nnnn2-c2ccccc2)CC1)N1CCC([C@H]2c3ncc(Br)cc3CCc3cc(Cl)cc(Br)c32)CC1 [Compound 2.0]	4.6 to 140		

SMILES	IC50 [1, 3] [nM]	IC50 [1, 2] [nM]	IC50 (Human tumor cells) [nM]	IC50 (COS Cell) [nM]
CC(=O)OC[C@H]1O[C@@H](N2CCC(CC(=O)N3CCC([C@H]4c5ncc(Br)cc5CCc5cc(Cl)cc(Br)c54)CC3)CC2)[C@H](OC(C)=O)[C@@H](OC(C)=O)[C@@H]1OC(C)=O [Compound 9.3, (+) -4-(3,10-dibromo-8-chloro-6,11-dihydro-5H-benzo[5,6]cyclohepta[1,2-b]pyridin-11-yl)-1-[[1-[2,3,4,6-tetra-O-acetyl-1-beta-D-glucopyranosyl]-4-piperidinyl]acetyl]piperidine]	29 to 91	4.6 to 140	≥ 80	35 to 120
